Source: EP2062893A1, “Fused imidazoles for cancer treatment” (Bayer Schering Pharma AG, priority 2007, dated 2009)

Key:
Type in all cases: cell-based
[1] = tested on: phosphorylated Akt protein; test: Cellular PI3K / Akt pathway assay (phospho-Akt Ser473 sandwich ELISA); conditions: Homo sapiens; MCF7 cells, ß-Heregulin (20ng/ml) stimulation, 48h incubation
Protocol: In order to study the cellular activity of the compounds according to the present invention, an Enzyme Linked Immunosorbent Assay (ELISA)-based assay has been used specific phospho-AKT. The assay is based on a Sandwich ELISA kit (PathScan™ Phospho-Akt1 (Ser473); Cell Signaling, USA; #7160). The ELISA Kit detects endogenous levels of phosphorylated Akt protein. A phospho-Akt (Ser473) antibody (Cell Signaling, USA; #9271) has been coated onto the microwells. After incubation with cell lysates, the coated antibody captures the phosphorylated Akt protein. Following extensive washing, Akt1 monoclonal antibody (Cell Signaling, USA; #2967) is added to detect the captured phospho-Akt1 protein. HRP-linked anti-mouse antibody (HRP: horseradish peroxidase; Cell Signaling, USA; #7076) is then used to recognize the bound detection antibody. HRP substrate (= 3,3',5,5'-tetramethylbenzidine (TMB); Cell Signaling, USA; #7160) is added to develop colour. The magnitude of optical density for this developed color is proportional to the quantity of phosphorylated Akt protein. MCF7 cells (ATCC HTB-22) are seeded into 96 well fate bottom plates at a density of 10000 cells/well. 24 hours after seeding, the cells are serum starved using low-serum medium (IMEM media including 0,1% charcoal treated FCS (FCS: fetal calf serum)). […] To stimulate Akt phosphorylation, ß-Heregulin (20ng/ml ß-HRG) is added in parallel to the compounds. Wells containing unstimulated control cells (no ß-Heregulin stimulation) are incubated with or without the diluted compound. Wells containing untreated control cells (no compound) are filled with medium containing 0.5% v:v DMSO and are or are not stimulated with ß-Heregulin. Cells are harvested and lysed with brief sonification in 1x cell lysis buffer (20mM Tris (pH7.5), 150 mM NaCl, 1 mM ethylene diaminetetraacetate (EDTA), 1 mM ethylene glycolbis(2-aminoethyl)-N,N,N',N'-tetraacetic acid (EGTA), 1vol% Triton X-100, 2.5mM sodium pyrophosphate, 1 mM β-glycerolphosphate, 1 mM Na3VO4, 1µg/ml leupeptin). The lysate is centrifuged for 10 min. at 4°C and the supernatant is transferred to a new tube. 100 µl of sample diluent (0.1vol% Tween-20, 0.1vol% sodium azide in phosphate buffered saline (PBS)) are added to a microcentrifuge tube and 100 µl of cell lysate are transferred into the tube and vortexed. 100 µl of each diluted cell lysate are added to the appropriate ELISA well, and incubated overnight at 4°C. The plates are washed 4 times with 1x wash buffer (1vol% tween-20, 0.33vol% thymol, in PBS). Next 100 µl of detection antibody (Akt1 (2H10) monoclonal detection antibody; Cell Signaling, USA; #2967) are added to each well and incubation continued for 1h at 37°C. The washing procedure is repeated between each step. 100µl of secondary antibody (anti-mouse IgG HRP-linked antibody; Cell Signaling, USA; #7076) are added to each well and incubated for 30 min. at 37°C. Than, 100µl of TMB substrate (0.05% 3,3',5,5' tetramethylbenzidine, 0.1 % hydrogen peroxide, complex polypeptides in a buffered solution; Cell Signaling, USA; #7160) are added to each well and incubated for 30 min. at 25°C. Finally 100 µl of STOP solution (0.05vol% α and β unsaturated carbonyl compound) are added to each well and the plate are shaked gently. The absorbance is measured at λ =450 nm (Wallac Victor2; Perkin Elmer, USA) within 30 min. after adding the STOP solution. The analysis of the data is performed using a statistical program (Excel; Microsoft, USA). Preferred compounds show an inhibitory activity towards Akt phosphorylation below 10µM.

phosphorylated GSK3 = test: Cellular pGSK3 assay (phospho-GSK3 Ser9 sandwich ELISA); conditions: Homo sapiens; MCF7 cells, 48h incubation, IC50 of pGSK3 inhibition
Protocol: In order to study the cellular activity of the compounds according to the present invention, an ELISA-based assay has been established for the phosphorylated protein glycogen synthetase kinase 3 (GSK3). The assay is based on a solid phase sandwich ELISA that detects endogenous levels of phosphorylated GSK3 using a phospho-GSK3 (Ser9) specific antibody (BioSource International, Inc.; Catalog #KHO0461). After incubation with cell lysates, the coated antibody captures the phosphorylated GSK3 protein. Following extensive washing, GSK3 polyclonal antibody is added to detect the captured phospho-GSK3 protein. Secondary antibody (anti-rabbit IgG-HRP) is then used to recognize the bound detection antibody. After the second incubation and washing to remove all the excess anti-rabbit IgG-HRP, a substrate solution is added, which is acted upon by the bound enzyme to produce color. The intensity of this colored product is directly proportional to the concentration of GSK-3β [pS9] present in the original specimen. MCF7 cells (ATCC HTB-22) were seeded into 96 well fate bottom plates at a density of 10000 cells/well. After 24 h 1 µl each of the compound dilutions (test compounds were dissolved as 10 mM solutions in dimethylsulfoxide (DMSO) and subsequently diluted) were added into each well of the 96 well plates and incubated for 48h at 37°C in a humidified athmosphere containing 5% CO2. Cells were harvested and lysed in cell extraction buffer (10 mM Tris, pH 7.4, 100 mM NaCl, 1 mM EDTA, 1 mM EGTA, 1 mM NaF, 20 mM Na4P2O7, 2 mM Na3VO4, 1% Triton X-100, 10vol% glycerol, 0.1vol% SDS, 0.5vol% deoxycholate, 1 mM phenylmethylsulfonylfluorid (PMSF)). The lysate were centrifuged for 10 min. at 4°C and the supernatant were transferred to a new tube. 50 µl of sample diluent (standard diluent buffer, Biosource) were added and 100 µl of cell lysate transferred into the tube and vortexed. 100 µl of each diluted cell lysate were added to the appropriate ELISA well plate and incubated for 3h at room temperature. The plates were washed 4 times with 1x wash buffer (Biosource). 50 µl of detection antibody (GSK3 (Ser9) detection antibody; BioSource) were added to each well and incubated for 30 min. at room temperature. The washing procedure was repeated between each step. 100µl of HRP-linked secondary antibody (anti-mouse IgG HRP-linked antibody) were added to each well and incubated for 30 min. at room temperature. 100µl of TMB substrate (0.05vol% 3,3',5,5' tetramethylbenzidine, 0.1vol% hydrogen peroxide, complex polypeptides in a buffered solution; Biosource) were added to each well and incubated for 30 min. at room temperature. Finally 100 µl of Stop solution (0.05vol% α and β unsaturated carbonyl compound) were added to each well and the plate were shaked gently for a few seconds. The absorbance was measured at λ = 450 nm (Wallac Victor2; Perkin Elmer, USA) within 30 min. after adding the stop solution. The analysis of the data was performed using a statistical program (Excel; Microsoft, USA) and the IC50 of pGSK3 inhibition was determined.

OvCAR3 cells = test: Cellular proliferation / Cytotoxicity assay (Alamar Blue / Resazurin cell viability); conditions: Homo sapiens, OVCAR-3, 48h incubation, read-out: Anti-proliferative / Cytotoxic activity (OvCAR3 cells)
Protocol: Wells containing untreated control cells were filled with 200 µl DMEM (Dulbecco's Modified Eagle Medium) containing 0.5vol% v:v DMSO. The cells are then incubated with the substances for 48h at 37°C in a humidified atmosphere containing 5vol% CO2. To determine the viability of the cells, 20 µl of a Resazurin solution (90mg / I) are added. […] Viabilities are expressed as % values.

Row | Structure (SMILES) | IC50 [1] | IC50 (phosphorylated GSK3) | IC50 (OvCAR3 cells)
1 | NC(=O)c1cccn2c(-c3ccccc3)c(-c3ccc(CN4CCC(c5n[nH]c(-c6ccccn6)n5)CC4)cc3)nc12 [Example 40, 3-phenyl-2-(4-{[4-(5-pyridin-2-yl-1,2,4-triazol-3-yl)piperidin-1-yl]methyl}phenyl)imidazo[1,2-a]pyridine-8-carboxamide] | < 1000 nM | < 1000 nM | 
2 | NC(=O)c1ccn2c(-c3ccccc3)c(-c3ccc(CN4CCC(c5n[nH]c(-c6ccccn6)n5)CC4)cc3)nc2c1 [Example 38, 3-phenyl-2-(4-{[4-(5-pyridin-2-yl-1,2,4-triazol-3-yl)piperidin-1-yl]methyl}phenyl)imidazo[1,2-a]pyridine-7-carboxamide] | < 1000 nM | < 1000 nM | < 10000 nM
3 | Clc1ccc2nc(-c3ccc(CN4CCC(c5n[nH]c(-c6ccccn6)n5)CC4)cc3)c(-c3ccccc3)n2n1 [Example 31, 6-chloro-3-phenyl-2-(4-{[4-(5-pyridin-2-yl-1,2,4-triazol-3-yl)piperidin-1-yl]methyl}phenyl)imidazo[1,2-b]pyridazine] | < 1000 nM | < 1000 nM | 
4 | c1ccc(-c2nc(C3CCN(Cc4ccc(-c5nc6sccn6c5-c5nccs5)cc4)CC3)n[nH]2)nc1 [Example 42, 6-(4-{[4-(5-pyridin-2-yl-1,2,4-triazol-3-yl)piperidin-1-yl]methyl}phenyl)-5-(1,3-thiazol-2-yl)imidazo[2,1-b][1,3]thiazole] | < 1000 nM |  | 
5 | c1ccc(-c2c(-c3ccc(CN4CCC(c5nc(-c6cnccn6)no5)CC4)cc3)nc3ncccn23)cc1 [Example 4, 3-phenyl-2-(4-{[4-(3-pyrazin-2-yl-1,2,4-oxadiazol-5-yl)piperidin-1-yl]methyl}phenyl)imidazo[1,2-a]pyrimidine] |  | 1000 to 10000 nM | > 10000 nM
6 | Clc1nccn2c(-c3ccccc3)c(-c3ccc(CN4CCC(c5n[nH]c(-c6ccccn6)n5)CC4)cc3)nc12 [Example 26, 8-chloro-3-phenyl-2-(4-{[4-(5-pyridin-2-yl-1,2,4-triazol-3-yl)piperidin-1-yl]methyl}phenyl)imidazo[1,2-a]pyrazine] |  | 1000 to 10000 nM | < 10000 nM
7 | N#Cc1cccn2c(-c3ccccc3)c(-c3ccc(CN4CCC(c5n[nH]c(-c6ccccn6)n5)CC4)cc3)nc12 [Example 5, 3-phenyl-2-(4-{[4-(5-pyridin-2-yl-1,2,4-triazol-3-yl)piperidin-1-yl]methyl}phenyl)imidazo[1,2-a]pyridine-8-carbonitrile] | < 1000 nM | < 1000 nM | 
8 | Fc1ccccc1-c1c(-c2ccc(CN3CCC(c4n[nH]c(-c5ccccn5)n4)CC3)cc2)nc2ncccn12 [Example 41, 3-(2-fluorophenyl)-2-(4-{[4-(5-pyridin-2-yl-1,2,4-triazol-3-yl)piperidin-1-yl]methyl}phenyl)imidazo[1,2-a]pyrimidine] | < 1000 nM |  | 
9 | c1ccc(-c2nc(C3CCN(Cc4ccc(-c5nc6ncccn6c5-c5ccncc5)cc4)CC3)n[nH]2)nc1 [Example 36, 3-pyridin-4-yl-2-(4-{[4-(5-pyridin-2-yl-1,2,4-triazol-3-yl)piperidin-1-yl]methyl}phenyl)imidazo[1,2-a]pyrimidine] |  | 1000 to 10000 nM | > 10000 nM
10 | c1ccc(-c2nc(C3CCN(Cc4ccc(-c5nc6ncccn6c5-c5cccs5)cc4)CC3)n[nH]2)nc1 [Example 35, 2-(4-{[4-(5-pyridin-2-yl-1,2,4-triazol-3-yl)piperidin-1-yl]methyl}phenyl)-3-(2-thienyl)imidazo[1,2-a]pyrimidine] |  | 1000 to 10000 nM | < 10000 nM
11 | FC(F)(F)c1ccn2c(-c3ccccc3)c(-c3ccc(CN4CCC(c5n[nH]c(-c6ccccn6)n5)CC4)cc3)nc2n1 [Example 28, 3-phenyl-2-(4-{[4-(5-pyridin-2-yl-1,2,4-triazol-3-yl)piperidin-1-yl]methyl}phenyl)-7-(trifluoromethyl)imidazo[1,2-a]pyrimidine] |  | 1000 to 10000 nM | < 10000 nM
